Results: ChEMBL document CHEMBL5625267, “Glycosidase-activated H2S donorsto enhance chemotherapy efficacy” (Bioorg Med Chem Lett, 2024)
Active and inactive are the calls of the source. No cut-off for these calls is given here.

Columns and labels:
HeLa [1] = test: Antiproliferative activity against human HeLa cells assessed as cell viability at 80 uM incubated for 24 hrs by MTT assay relative to control; assay type: functional; conditions: read-out: Activity
HepG2 [2] = test: Cytotoxicity against human HepG2 cells assessed as cell viability at 100 uM incubated for 24 hrs in presence of doxorubicin by MTT assay relative to control; assay type: functional; conditions: read-out: Activity
HeLa [3] = test: Induction of apoptosis in human HeLa cells at 80 uM incubated for 24 hrs by annexin V-FITC/propidium iodide staining based flow cytometry analysis relative to control; assay type: functional
HeLa [4] = test: Induction of apoptosis in human HeLa cells assessed as necrotic cells at 80 uM incubated for 24 hrs by annexin V-FITC/propidium iodide staining based flow cytometry analysis (reference value: 0.71 %); assay type: functional
[5] = Release of H2S in PBS at 50 uM at pH 7.4; assay type: physicochemical; conditions: buffer, pH 7.4, 50 µM
HepG2 [6] = test: Antiproliferative activity against human HepG2 cells assessed as cell viability at 50 uM incubated for 24 hrs by MTT assay relative to control; assay type: functional; conditions: read-out: Activity
HepG2 [7] = test: Induction of apoptosis in human HepG2 cells at 80 uM incubated for 24 hrs by annexin V-FITC/propidium iodide staining based flow cytometry analysis relative to control; assay type: functional
HepG2 [8] = test: Induction of apoptosis in human HepG2 cells assessed as viable cells at 80 uM incubated for 24 hrs by annexin V-FITC/propidium iodide staining based flow cytometry analysis (reference value: 87.1 %); assay type: functional; conditions: read-out: Activity
HepG2 [9] = test: Antiproliferative activity against human HepG2 cells assessed as cell viability at 80 uM incubated for 24 hrs by MTT assay relative to control; assay type: functional; conditions: read-out: Activity
HepG2 [10] = test: Induction of apoptosis in human HepG2 cells assessed as late apoptotic cells at 80 uM incubated for 24 hrs by annexin V-FITC/propidium iodide staining based flow cytometry analysis (reference value: 10.1 %); assay type: functional
HeLa [11] = test: Induction of apoptosis in human HeLa cells assessed as late apoptotic cells at 80 uM incubated for 24 hrs by annexin V-FITC/propidium iodide staining based flow cytometry analysis (reference value: 3.95 %); assay type: functional
HepG2 [12] = test: Cytotoxicity against human HepG2 cells assessed as cell viability at 80 uM incubated for 24 hrs in presence of doxorubicin by MTT assay relative to control; assay type: functional; conditions: read-out: Activity
HeLa [13] = test: Antiproliferative activity against human HeLa cells assessed as cell viability at 50 uM incubated for 24 hrs by MTT assay relative to control; assay type: functional; conditions: read-out: Activity
HepG2 [14] = test: Cytotoxicity against human HepG2 cells assessed as cell viability at 100 uM incubated for 24 hrs by MTT assay relative to control; assay type: functional; conditions: read-out: Activity
HepG2 [15] = test: Induction of apoptosis in human HepG2 cells assessed as early apoptotic cells at 80 uM incubated for 24 hrs by annexin V-FITC/propidium iodide staining based flow cytometry analysis (reference value: 1.03 %); assay type: functional
HepG2 [16] = test: Cytotoxicity against human HepG2 cells assessed as cell viability at 80 uM incubated for 24 hrs by MTT assay relative to control; assay type: functional; conditions: read-out: Activity
HeLa [17] = test: Induction of apoptosis in human HeLa cells assessed as early apoptotic cells at 80 uM incubated for 24 hrs by annexin V-FITC/propidium iodide staining based flow cytometry analysis (reference value: 3.59 %); assay type: functional
[18] = Antiproliferative activity against mouse 3T3 cells assessed as cell viability at 50 uM incubated for 24 hrs by MTT assay relative to control; assay type: toxicity, cell-based; conditions: NIH3T3 cells, read-out: Activity
HeLa [19] = test: Induction of apoptosis in human HeLa cells assessed as viable cells at 80 uM incubated for 24 hrs by annexin V-FITC/propidium iodide staining based flow cytometry analysis (reference value: 91.7 %); assay type: functional; conditions: read-out: Activity
HepG2 [20] = test: Induction of apoptosis in human HepG2 cells assessed as necrotic cells at 80 uM incubated for 24 hrs by annexin V-FITC/propidium iodide staining based flow cytometry analysis (reference value: 1.63 %); assay type: functional
[21] = Antiproliferative activity against mouse 3T3 cells assessed as cell viability at 80 uM incubated for 24 hrs by MTT assay relative to control; assay type: toxicity, cell-based; conditions: NIH3T3 cells, read-out: Activity
HepG2 [22] = test: Release of H2S in human HepG2 cells assessed as fold increase in fluorescence intensity at 50 uM incubated for 7 hrs in presence of fluorescent probe WPS-1 measured after 30 mins by confocal imaging analysis; assay type: ADME, cell-based; conditions: hepg2, 7.5 h
HepG2 [23] = test: Cytotoxicity against human HepG2 cells assessed as cell viability at 2 ug/ml incubated for 24 hrs by MTT assay relative to control; assay type: functional; conditions: read-out: Activity

SMILES	viability at 80 µM (HeLa [1]) [%]	Activity (HeLa [3])	Activity [5] [%]	viability at 50 µM (HepG2 [6]) [%]	Activity (HepG2 [7])	viability at 80 µM (HepG2 [9]) [%]	viability at 50 µM (HeLa [13]) [%]	viability at 24 h, 50 µM [18] [%]	viability at 24 h, 80 µM [21] [%]	other results
OC[C@H]1O[C@H](Oc2ccc(COC(=S)Nc3ccc(C(F)(F)F)cc3)cc2Br)[C@@H](O)[C@@H](O)[C@@H]1O	70.8	45.2%	36	53.2	51.8%	37.6	102	83.6	62.3	viability at 100 µM (HepG2 [2]): 46%; Activity (HeLa [4]): 4.98%; viability at 80 µM (HepG2 [8]): 50.7%; Activity (HepG2 [10]): 37.4%; Activity (HeLa [11]): 23.3%; viability at 80 µM (HepG2 [12]): 64%; viability at 100 µM (HepG2 [14]): 67%; Activity (HepG2 [15]): 10.8%; viability at 80 µM (HepG2 [16]): 73%; Activity (HeLa [17]): 21.1%; viability at 80 µM (HeLa [19]): 50.6%; Activity (HepG2 [20]): 1.13%; fold change (FC) (HepG2 [22]): 7
OC[C@H]1O[C@@H](Oc2ccc(COC(=S)Nc3ccc(C(F)(F)F)cc3)cc2Br)[C@H](O)[C@@H](O)[C@@H]1O	92.1	inactive	36	87.3	inactive	61.8	95.3	93.5	92.7	
Cc1ccc(NC(=S)OCc2ccc(O[C@@H]3O[C@H](CO)[C@H](O)[C@H](O)[C@H]3O)cc2)cc1	96.3	inactive	36	95.8	inactive	96.9	97.1	110	103	
OC[C@H]1O[C@H](Oc2ccc(COC(=S)Nc3ccc(C(F)(F)F)cc3)cc2)[C@@H](O)[C@@H](O)[C@@H]1O	95	inactive	36	81.7	inactive	90.2	97.4	94.5	95.3	
COc1cccc2c1C(=O)c1c(O)c3c(c(O)c1C2=O)C[C@@](O)(C(=O)CO)C[C@@H]3O[C@H]1C[C@H](N)[C@H](O)[C@H](C)O1 [DOXORUBICIN]										viability at 2 µg/mL (HepG2 [23]): 100%
OC[C@H]1O[C@@H](Oc2ccc(COC(=S)Nc3ccc(C(F)(F)F)cc3)cc2F)[C@H](O)[C@@H](O)[C@@H]1O	100	inactive	36	88.6	inactive	86	96	88.9	90.8	
O=C(Nc1ccc(C(F)(F)F)cc1)OCc1ccc(O[C@H]2O[C@H](CO)[C@@H](O)[C@H](O)[C@@H]2O)c(Br)c1						51.6				
OC[C@H]1O[C@H](Oc2ccc(COC(=S)Nc3ccc(C(F)(F)F)cc3)cc2F)[C@@H](O)[C@@H](O)[C@@H]1O	72.6	40.6%	36	45.7	24.4%	49	78.7	86.3	83.9	Activity (HeLa [4]): 8.15%; viability at 80 µM (HepG2 [8]): 76.3%; Activity (HepG2 [10]): 18.3%; Activity (HeLa [11]): 23.9%; Activity (HepG2 [15]): 1.03%; Activity (HeLa [17]): 8.14%; viability at 80 µM (HeLa [19]): 56.8%; Activity (HepG2 [20]): 3.44%
OC[C@H]1O[C@@H](Oc2ccc(COC(=S)Nc3ccc(C(F)(F)F)cc3)cc2)[C@H](O)[C@@H](O)[C@H]1O	82.1	inactive	36	78.1	inactive	68.9	92	89.8	86.2	
OC[C@H]1O[C@@H](Oc2ccc(COC(=S)Nc3ccc(C(F)(F)F)cc3)cc2Br)[C@H](O)[C@@H](O)[C@H]1O	88.2		36	82.2	20.9%	86.8	97.5	86.8	89.2	
OC[C@H]1O[C@@H](Oc2ccc(COC(=S)Nc3ccc(C(F)(F)F)cc3)cc2)[C@H](O)[C@@H](O)[C@@H]1O	92	inactive	36	87.9	inactive	91.2	86.9	88.1	91.7	
Cc1ccc(NC(=S)OCc2ccc(O[C@@H]3O[C@H](CO)[C@@H](O)[C@H](O)[C@H]3O)cc2)cc1	90.8	inactive	36	91	inactive	85.3	86.9	102	95	
OC[C@H]1O[C@@H](Oc2ccc(COC(=S)Nc3ccc(C(F)(F)F)cc3)cc2F)[C@H](O)[C@@H](O)[C@H]1O	96	inactive	36	88.9	inactive	86	94.6	97.3	87.9	
